Reference: PubChem BioAssay AID686920 (Broad Institute, 2013)

These compounds were tested on A673 NR0B1-luciferase reporter, viability-normalised luminescence (assay: NR0B1 reporter signal reduction in A673 cells – cell-based, luciferase luminescence, cherry-pick, EWS/Fli inhibitor project, dose response (AID 686920)).
In the case of CCc1cccc2c(C(=O)CN3C(=O)NC4(CCCCC4)C3=O)c[nH]c12, the AC35 is reported as 14.1 µM. Compound CO[C@H]1CN(C)C(=O)c2ccc(NC(=O)c3ccc(-c4ccccc4)cc3)cc2OC[C@H](C)NC[C@H]1C has an AC35 of 15 µM. CCOc1ccc(C(c2c(NC(=O)c3ccccc3)sc(C)c2C)N2CCN(CCO)CC2)cc1 (stereo not given) gave an AC35 of 46.3 µM. In the case of O=C(Nc1ccc(F)cc1)N1CCCCN2[C@@H](CO)[C@H](c3ccc(C4=CCCCC4)cc3)[C@@H]2C1, the AC35 is reported as 13.3 µM. For O=c1oc2cc(O)ccc2s1, the AC35 was 11.8 µM. In the case of CC(=O)c1ccc(NC(=O)c2noc3c2CCC3)cc1, the AC35 is reported as 3.06 µM. C[C@H]1CN([C@@H](C)CO)S(=O)(=O)c2ccc(C#Cc3ccncc3)cc2O[C@@H]1CN(C)C(=O)Nc1ccc2c(c1)OCO2 gave an AC35 of 10.1 µM. With C[C@@H]1CN([C@@H](C)CO)C(=O)Cc2cc(N(C)C)ccc2O[C@@H]1CN(C)Cc1ccccc1 the AC35 was 7.99 µM. Compound COc1ccc(S(=O)(=O)Nc2ccc3c(c2)C(=O)N([C@H](C)CO)C[C@@H](C)[C@@H](CN(C)Cc2ccc(C(=O)Nc4ccccc4N)cc2)O3)cc1 has an AC35 of 5.11 µM. With CC(=O)OC1CC(OC2C(O)CC(OC3C(O)CC(OC4CCC5(C)C(CCC6C5CC(O)C5(C)C(C7=CC(=O)OC7)CCC65O)C4)OC3C)OC2C)OC(C)C1OC1OC(CO)C(O)C(O)C1O (stereo not given) the AC35 was 0.225 µM. Compound CN(C)c1ccc(N=Nc2ccccc2Br)cc1 has an AC35 of 21.3 µM. Compound C[C@@H]1CN([C@@H](C)CO)C(=O)c2cc(NC(=O)Nc3ccccc3)ccc2O[C@@H]1CN(C)Cc1ccc(C(=O)Nc2ccccc2N)cc1 has an AC35 of 5.75 µM. In the case of OC[C@H]1O[C@@H](n2cnc3c(NCc4ccco4)ncnc32)[C@H](O)[C@@H]1O, the AC35 is reported as 4.99 µM. In the case of CN(C[C@H]1N[C@@H](CO)[C@@H]1c1ccc(C2=CCCC2)cc1)C(=O)c1cccc(F)c1, the AC35 is reported as 3.48 µM. With O=C(/C=C/c1ccc(Cl)cc1Cl)N(Cc1ccc(Cl)cc1)C1CCS(=O)(=O)C1 (stereo not given) the AC35 was 33.5 µM. Compound COc1ccc(S(=O)(=O)N2CCCc3nc(-c4ccc(F)cc4)ccc32)cc1 has an AC35 of 4.87 µM. In the case of COc1ccc2cc(C(N)=O)/c(=N\NC(=O)c3ccccc3)oc2c1, the AC35 is reported as 5.91 µM. In the case of COc1cc(/C=N/NS(=O)(=O)c2ccc(C)cc2)ccc1OCc1cccc(C(=O)O)c1, the AC35 is reported as 4.09 µM. Work on Cc1nc(N)nc(N)c1-c1ccc(Cl)c(Cl)c1 yielded an AC35 of 0.495 µM. COC(=O)C1=C(C)N(Cc2cccc(C(F)(F)F)c2)C(=NCc2ccc(OC)cc2)NC1c1cccc(F)c1 (stereo not given) showed an AC35 of 13.2 µM. For O=C(NC[C@@H]1N[C@@H](CO)[C@H]1c1ccc(C2=CCCCC2)cc1)c1cccc(F)c1, the AC35 was 29.8 µM. N#CC1=C(N)Oc2cc(N)ccc2C1c1cccc(F)c1 (stereo not given) showed an AC35 of 1.96 µM. Compound CCc1ccc(/C=C2\SC(=S)N(CCCC(=O)Nc3cc(C)on3)C2=O)cc1 has an AC35 of 0.947 µM. CO[C@H]1CN(C)C(=O)c2cc(NC(=O)NC(C)C)ccc2OC[C@H](C)N(Cc2ccc(-c3ccccn3)cc2)C[C@@H]1C showed an AC35 of 5.22 µM. COc1ccc(C(=O)Nc2cccc(C(=O)N/N=C/c3ccc(OC)cc3OC)c2)cc1 gave an AC35 of 31.2 µM. In the case of COC1C(C)OC(OC2CC(C)(O)Cc3cc4c(c(O)c32)C(=O)c2c(O)cc3c(c2C4=O)OC2OC3(C)C(O)C(N(C)C)C2O)C(OC)C1(C)OC (stereo not given), the AC35 is reported as 0.0829 µM. COc1ccc(S(=O)(=O)Nc2cccc3c2O[C@H](CN(C)Cc2ccc(C(=O)Nc4ccccc4N)cc2)[C@H](C)CN([C@@H](C)CO)C3=O)cc1 showed an AC35 of 5.64 µM. Compound O=c1cc(CN2CCN(Cc3ccccc3)CC2)c2ccc(O)c(O)c2o1 has an AC35 of 23.3 µM. Cc1ccc(NC(=O)CCN2CCCCC2)cc1 was tested, and the AC35 was 26.1 µM. Work on C[C@@H]1CN([C@H](C)CO)S(=O)(=O)c2ccc(C#Cc3ccncc3)cc2O[C@@H]1CN(C)C(=O)Nc1ccc2c(c1)OCO2 yielded an AC35 of 24.5 µM. C[C@@H]1CN([C@@H](C)CO)C(=O)c2cc(NS(=O)(=O)c3ccc(Cl)cc3)ccc2O[C@@H]1CN(C)Cc1ccc(C(=O)Nc2ccccc2N)cc1 was tested, and the AC35 was 7.36 µM. CC(=O)c1ccc(N=Nc2ccc(C)cc2)cc1 gave an AC35 of 8.92 µM. Work on COc1cc(-c2cnc3c(NC=O)cc(-c4cccc(NC(C)=O)c4)cn23)cc(OC)c1OC yielded an AC35 of 0.298 µM. With C[C@]12CCC3C(CCC4=CC(O)CC[C@@]43/C=N/O)C1(O)CCC2C1=CC(=O)OC1 (stereo not given in full) the AC35 was 0.529 µM. Work on COc1cc2c(OC(C)=O)c3c(c(-c4ccc5c(c4)OCO5)c2cc1OC)C(=O)OC3 yielded an AC35 of 2.34 µM.
